Source: ChEMBL document CHEMBL5528083, “Discovery of a Novel Thienopyrimidine Compound as a Urate Transporter 1 and Glucose Transporter 9 Dual Inhibitor with Improved Efficacy and Favorable Druggability” (J Med Chem, 2024)

How the values were obtained:
[1] = target: T1, Solute carrier family 22 member 12 (Homo sapiens, UniProt Q96S37); test: Inhibition of human URAT1 expressed in HEK293T cells using 14C- uric acid assessed as uric acid absorption by measuring intracellular liquid radiation value by liquid scintillation counting analysis; format: cell-based
T1 sequence (Q96S37 whole entry): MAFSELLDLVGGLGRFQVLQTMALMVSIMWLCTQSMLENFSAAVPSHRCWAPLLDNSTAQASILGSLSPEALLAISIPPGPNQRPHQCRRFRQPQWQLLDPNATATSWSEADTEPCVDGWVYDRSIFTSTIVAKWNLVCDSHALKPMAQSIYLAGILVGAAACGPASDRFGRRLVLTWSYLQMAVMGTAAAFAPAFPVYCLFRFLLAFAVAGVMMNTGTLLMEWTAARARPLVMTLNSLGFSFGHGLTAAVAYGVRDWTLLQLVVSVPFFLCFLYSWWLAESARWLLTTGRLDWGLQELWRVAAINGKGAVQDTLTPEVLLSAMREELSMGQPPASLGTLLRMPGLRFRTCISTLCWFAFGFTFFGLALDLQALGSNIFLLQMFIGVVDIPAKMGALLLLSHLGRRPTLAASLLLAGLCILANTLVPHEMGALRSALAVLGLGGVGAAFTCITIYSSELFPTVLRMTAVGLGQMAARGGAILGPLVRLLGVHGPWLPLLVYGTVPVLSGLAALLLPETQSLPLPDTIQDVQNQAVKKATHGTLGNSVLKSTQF

Rattus norvegicus = test: Reduction in serum uric acid level in po dosed acute hyperuricemia state Sprague-Dawley rat model assessed as SUA level by measuring decrease ratio relative to control; format: functional; set-up: scale not given: the % may be the effect or the level left
Mus musculus [2] = test: Reduction in serum uric acid level in acute hyperuricemia state Kunming mouse model assessed as SUA level at 0.5 mg/kg, po (reference value: 1037 +/- 106.59 uM); format: functional
Cytochrome P450 2D6 = Cytochrome P450 2D6 (Homo sapiens, UniProt P10635); test: Inhibition of CYP2D6 in human liver microsomes measured after 40 mins incubation by LC-MS/MS analysis; format: ADME, Microsome
Sequence of Cytochrome P450 2D6 (P10635 whole entry): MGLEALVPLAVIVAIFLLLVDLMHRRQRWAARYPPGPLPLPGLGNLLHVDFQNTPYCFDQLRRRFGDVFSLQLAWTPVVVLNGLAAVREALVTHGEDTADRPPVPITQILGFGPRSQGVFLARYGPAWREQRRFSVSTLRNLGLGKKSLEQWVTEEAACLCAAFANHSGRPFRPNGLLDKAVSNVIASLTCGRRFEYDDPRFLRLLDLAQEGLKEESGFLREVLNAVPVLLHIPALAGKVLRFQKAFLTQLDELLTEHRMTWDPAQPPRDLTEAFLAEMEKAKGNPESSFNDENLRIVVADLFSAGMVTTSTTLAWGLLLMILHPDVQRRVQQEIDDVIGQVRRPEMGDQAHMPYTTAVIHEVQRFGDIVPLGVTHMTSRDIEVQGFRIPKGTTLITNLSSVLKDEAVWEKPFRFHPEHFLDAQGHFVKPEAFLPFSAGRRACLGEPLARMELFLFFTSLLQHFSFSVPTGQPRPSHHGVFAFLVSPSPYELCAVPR

[3] = target: T2, Solute carrier family 2, facilitated glucose transporter member 9 (Mus musculus) (UniProt Q3T9X0); test: Inhibition of mouse EGFP-tagged GLUT9 expressed in HEK293T cells assessed as inhibition rate by measuring relative current at 5 uM by patch clamp electrophysiological analysis relative to control; format: cell-based; set-up: scale not given: the % may be the effect or the level left
T2 sequence (whole entry): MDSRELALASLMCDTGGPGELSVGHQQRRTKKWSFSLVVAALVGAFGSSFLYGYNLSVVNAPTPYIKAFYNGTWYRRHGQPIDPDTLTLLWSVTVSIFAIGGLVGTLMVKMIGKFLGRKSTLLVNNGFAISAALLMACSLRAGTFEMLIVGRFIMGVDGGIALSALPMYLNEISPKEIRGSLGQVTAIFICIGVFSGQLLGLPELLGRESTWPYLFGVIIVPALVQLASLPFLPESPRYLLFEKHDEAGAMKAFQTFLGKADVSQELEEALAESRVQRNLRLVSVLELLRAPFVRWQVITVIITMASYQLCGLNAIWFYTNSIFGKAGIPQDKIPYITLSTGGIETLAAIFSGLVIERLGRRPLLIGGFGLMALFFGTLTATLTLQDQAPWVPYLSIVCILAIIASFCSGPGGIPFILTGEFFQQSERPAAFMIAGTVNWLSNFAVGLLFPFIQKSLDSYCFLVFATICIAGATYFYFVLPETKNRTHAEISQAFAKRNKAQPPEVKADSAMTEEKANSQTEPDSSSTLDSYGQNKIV

Mus musculus [4] = test: Reduction in serum uric acid level in acute hyperuricemia state Kunming mouse model assessed as SUA level by measuring decrease ratio at 0.25 mg/kg, po relative to control; format: functional; set-up: scale not given: the % may be the effect or the level left
Mus musculus [5] = test: Reduction in serum uric acid level in acute hyperuricemia state Kunming mouse model assessed as SUA level at 0.25 mg/kg, po (reference value: 1037 +/- 106.59 uM); format: functional
[6] = Toxicity in Kunming female mouse assessed as renal injury at 100 mg/kg, po administered every other day for 14 days by H and E staining based assay; format: organism-based; conditions: in vivo, 336 h, time 14 day
[7] = Acute toxicity in Kunming mouse assessed as change in body weight at 250 to 1000 mg/kg, po administered as single dose monitored for 7 days; format: organism-based; conditions: in vivo, 168 h, dose 250-1000 mg/kg, time 7 day
[8] = Subacute toxicity in Kunming female mouse assessed as change in body weight at 100 mg/kg, po administered every other day for 14 days; format: organism-based; conditions: in vivo, 336 h, time 14 day
[9] = Oral bioavailability in Sprague-Dawley rat at 2 mg/kg measured upto 24 hrs by LC-MS/MS-AR analysis; format: ADME, organism-based; conditions: in vivo
Cytochrome P450 3A4 = Cytochrome P450 3A4 (Homo sapiens, UniProt P08684); test: Inhibition of CYP3A4 in human liver microsomes using midazolam measured after 40 mins incubation by LC-MS/MS analysis; format: ADME, Microsome
Sequence of Cytochrome P450 3A4 (P08684 whole entry): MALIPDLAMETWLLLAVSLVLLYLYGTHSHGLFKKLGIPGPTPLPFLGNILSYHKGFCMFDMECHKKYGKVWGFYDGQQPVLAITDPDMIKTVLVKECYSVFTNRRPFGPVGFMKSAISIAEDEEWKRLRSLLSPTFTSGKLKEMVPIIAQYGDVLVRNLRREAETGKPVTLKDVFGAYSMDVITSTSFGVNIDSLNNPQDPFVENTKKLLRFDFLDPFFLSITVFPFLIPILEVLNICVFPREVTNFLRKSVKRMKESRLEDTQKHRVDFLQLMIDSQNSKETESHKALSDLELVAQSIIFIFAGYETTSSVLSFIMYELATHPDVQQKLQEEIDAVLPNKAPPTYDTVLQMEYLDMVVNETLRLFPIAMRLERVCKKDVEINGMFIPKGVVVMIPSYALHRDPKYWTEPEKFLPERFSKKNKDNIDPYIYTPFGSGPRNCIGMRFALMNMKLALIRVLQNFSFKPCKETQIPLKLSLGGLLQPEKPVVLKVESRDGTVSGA

Mus musculus [10] = species: Mus musculus; test: Reduction in serum uric acid level in chronic hyperuricemia state Kunming mouse model assessed as SUA level (reference value: 660.33 +/- 103.57 uM); format: functional
[11] = Acute toxicity in Kunming mouse assessed as fatality rate at 1000 mg/kg, po administered as single dose monitored for 7 days; format: organism-based; conditions: in vivo, po, 1000 mg/kg, 168 h, time 7 day
Mus musculus [12] = test: Reduction in serum uric acid level in acute hyperuricemia state Kunming mouse model assessed as SUA level by measuring decrease ratio at 0.5 mg/kg, po relative to control; format: functional; set-up: scale not given: the % may be the effect or the level left
[13] = Half life in Sprague-Dawley rat at 2 mg/kg, iv measured upto 24 hrs by LC-MS/MS-AR analysis; format: ADME, organism-based; conditions: in vivo
Mus musculus [14] = species: Mus musculus; test: Reduction in serum uric acid level in acute hyperuricemia state Kunming mouse model assessed as SUA level by measuring decrease ratio relative to control; format: functional; set-up: concentration or dose not given beside the values
[15] = AUC (0 to infinity) in Sprague-Dawley rat at 2 mg/kg, iv measured upto 24 hrs by LC-MS/MS-AR analysis; format: ADME, organism-based; conditions: in vivo
[16] = MRT (0 to infinity) in Sprague-Dawley rat at 2 mg/kg, po measured upto 24 hrs by LC-MS/MS-AR analysis; format: ADME, organism-based; conditions: in vivo
Cytochrome P450 2C9 = Cytochrome P450 2C9 (Homo sapiens, UniProt P11712); test: Inhibition of CYP2C9 in human liver microsomes measured after 40 mins incubation by LC-MS/MS analysis; format: ADME, Microsome
Sequence of Cytochrome P450 2C9 (P11712 whole entry): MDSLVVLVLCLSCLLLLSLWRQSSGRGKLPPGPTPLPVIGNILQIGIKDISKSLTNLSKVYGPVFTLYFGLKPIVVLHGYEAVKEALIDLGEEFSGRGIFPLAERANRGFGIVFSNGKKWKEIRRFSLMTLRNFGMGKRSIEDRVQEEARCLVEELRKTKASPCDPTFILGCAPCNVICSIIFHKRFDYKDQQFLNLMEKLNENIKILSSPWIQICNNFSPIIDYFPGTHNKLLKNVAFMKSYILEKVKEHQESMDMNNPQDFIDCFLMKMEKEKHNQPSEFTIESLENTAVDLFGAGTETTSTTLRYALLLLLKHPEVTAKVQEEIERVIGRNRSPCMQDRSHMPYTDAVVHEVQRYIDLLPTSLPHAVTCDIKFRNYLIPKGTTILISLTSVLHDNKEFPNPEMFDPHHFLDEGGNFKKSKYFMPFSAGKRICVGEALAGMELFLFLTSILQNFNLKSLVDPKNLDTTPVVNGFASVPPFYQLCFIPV

[17] = MRT (0 to infinity) in Sprague-Dawley rat at 2 mg/kg, iv measured upto 24 hrs by LC-MS/MS-AR analysis; format: ADME, organism-based; conditions: in vivo
[18] = Acute toxicity in Kunming mouse assessed as convulsions at 250 to 1000 mg/kg, po administered as single dose monitored for 7 days; format: organism-based; conditions: in vivo, 168 h, dose 250-1000 mg/kg, time 7 day
[19] = Acute toxicity in Kunming mouse assessed as anorexia at 250 to 1000 mg/kg, po administered as single dose monitored for 7 days; format: organism-based; conditions: in vivo, 168 h, dose 250-1000 mg/kg, time 7 day
[20] = Cmax in Sprague-Dawley rat at 2 mg/kg, iv measured upto 24 hrs by LC-MS/MS-AR analysis; format: ADME, organism-based; conditions: in vivo

Compound: O=C(O)CCCSc1nc(Nc2ccc(C3CC3)c3ccccc23)c2sccc2n1
- IC50 [1]: 2010 nM
- Activity (Rattus norvegicus): 90.12%
- Activity (Mus musculus [2]): 418.6 µM
- IC50 (Cytochrome P450 2D6): > 20000 nM
- Activity [3]: 69.7%
- Activity (Mus musculus [4]): 9.89%
- Activity (Mus musculus [5]): 945 µM
- Activity [6]: Toxic
- Activity [7]: Toxic
- Activity [8]: Toxic
- F [9]: 20.1%
- IC50 (Cytochrome P450 3A4): > 20000 nM
- Activity (Mus musculus [10]): 241 µM
- Activity [11]: Non-Toxic
- Activity (Mus musculus [12]): 66.49%
- half-life [13]: 1.6 h
- Activity (Mus musculus [14]): 93.2%
- AUC [15]: 1922.9 ng·h/mL
- MRT inf [16]: 2.5 h
- IC50 (Cytochrome P450 2C9): 2000 nM
- MRT inf [17]: 0.5 h
- Activity [18]: Non-Toxic
- Activity [19]: Non-Toxic
- Cmax [20]: 6590 ng/mL
